From patent publication US11773096B2, “Small-molecule PI5P4K alpha/beta inhibitors and methods of treatment using same” (YALE UNIVERSITY, priority 2018, dated 2023)

How the values were obtained:
[1] = molecular target: PI3Kγ (Homo sapiens, UniProt P48736); experiment: Lipid kinase panel (ADP-Glo)
Experimental: (§3) In both titrations, the ATP concentration was fixed at 50 μM.

[2] = test system: MCF10A p53(−/−) cells; experiment: Growth of isogenic MCF10A cells, p53(−/−); type: cell-based
[3] = molecular target: Plk1 (Homo sapiens, UniProt P53350); experiment: HotSpot protein kinase panel; conditions: read-out: Plk1 activity remaining
Sequence of Plk1 (P53350 whole entry): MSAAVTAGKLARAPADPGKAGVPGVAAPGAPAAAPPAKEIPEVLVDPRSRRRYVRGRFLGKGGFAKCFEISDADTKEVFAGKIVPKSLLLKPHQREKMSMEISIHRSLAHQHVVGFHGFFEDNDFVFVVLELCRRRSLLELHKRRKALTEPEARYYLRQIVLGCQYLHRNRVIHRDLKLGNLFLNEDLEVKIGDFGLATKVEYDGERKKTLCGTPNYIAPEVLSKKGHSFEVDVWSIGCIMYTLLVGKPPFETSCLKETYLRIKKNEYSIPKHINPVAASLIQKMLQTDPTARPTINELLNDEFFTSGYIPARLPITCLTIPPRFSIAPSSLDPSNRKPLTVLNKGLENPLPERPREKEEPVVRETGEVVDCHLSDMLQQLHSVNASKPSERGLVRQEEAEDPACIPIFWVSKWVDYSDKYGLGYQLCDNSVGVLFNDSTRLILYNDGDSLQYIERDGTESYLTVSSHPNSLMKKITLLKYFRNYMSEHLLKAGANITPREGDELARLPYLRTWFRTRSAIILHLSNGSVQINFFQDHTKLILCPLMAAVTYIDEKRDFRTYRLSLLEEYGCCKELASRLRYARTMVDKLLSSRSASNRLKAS
Experimental: (§4) In both titrations, the ATP concentration was fixed at 50 μM. The assay kits for Plk1 and RSK2 were obtained from Promega (Madison, Wis.), which use ADP-Glo™ for activity detection.

[4] = molecular target: PI3Kδ (Homo sapiens, UniProt O00329); experiment: Lipid kinase panel (ADP-Glo)
Sequence of PI3Kδ (O00329 whole entry, species assumed): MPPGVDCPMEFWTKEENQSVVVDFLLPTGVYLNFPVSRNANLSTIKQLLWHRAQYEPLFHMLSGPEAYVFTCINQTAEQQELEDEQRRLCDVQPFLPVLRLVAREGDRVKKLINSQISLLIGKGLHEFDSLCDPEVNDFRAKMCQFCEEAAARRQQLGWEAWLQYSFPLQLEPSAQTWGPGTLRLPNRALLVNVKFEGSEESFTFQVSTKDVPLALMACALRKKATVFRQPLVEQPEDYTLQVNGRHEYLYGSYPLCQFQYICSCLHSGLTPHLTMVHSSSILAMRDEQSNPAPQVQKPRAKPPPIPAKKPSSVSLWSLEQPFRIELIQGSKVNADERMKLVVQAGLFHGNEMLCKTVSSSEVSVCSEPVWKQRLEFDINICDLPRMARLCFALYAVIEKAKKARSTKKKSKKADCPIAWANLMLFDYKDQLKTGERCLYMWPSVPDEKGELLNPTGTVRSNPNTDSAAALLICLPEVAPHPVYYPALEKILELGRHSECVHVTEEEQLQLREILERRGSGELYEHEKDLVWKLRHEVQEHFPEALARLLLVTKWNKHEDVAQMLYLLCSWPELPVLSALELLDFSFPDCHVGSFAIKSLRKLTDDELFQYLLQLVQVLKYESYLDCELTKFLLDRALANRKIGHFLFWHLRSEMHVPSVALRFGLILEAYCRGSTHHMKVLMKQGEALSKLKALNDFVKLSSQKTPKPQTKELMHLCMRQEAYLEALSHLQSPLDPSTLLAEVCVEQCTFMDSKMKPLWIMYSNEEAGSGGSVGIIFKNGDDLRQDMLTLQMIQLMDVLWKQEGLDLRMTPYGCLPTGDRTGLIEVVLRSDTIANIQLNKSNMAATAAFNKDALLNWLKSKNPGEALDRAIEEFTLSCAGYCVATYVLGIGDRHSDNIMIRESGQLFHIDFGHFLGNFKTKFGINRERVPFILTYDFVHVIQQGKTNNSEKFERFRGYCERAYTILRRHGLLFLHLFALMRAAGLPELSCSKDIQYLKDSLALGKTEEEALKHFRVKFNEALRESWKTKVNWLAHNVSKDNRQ
Sequence of PI3Kδ (P27986 whole entry partner, species assumed): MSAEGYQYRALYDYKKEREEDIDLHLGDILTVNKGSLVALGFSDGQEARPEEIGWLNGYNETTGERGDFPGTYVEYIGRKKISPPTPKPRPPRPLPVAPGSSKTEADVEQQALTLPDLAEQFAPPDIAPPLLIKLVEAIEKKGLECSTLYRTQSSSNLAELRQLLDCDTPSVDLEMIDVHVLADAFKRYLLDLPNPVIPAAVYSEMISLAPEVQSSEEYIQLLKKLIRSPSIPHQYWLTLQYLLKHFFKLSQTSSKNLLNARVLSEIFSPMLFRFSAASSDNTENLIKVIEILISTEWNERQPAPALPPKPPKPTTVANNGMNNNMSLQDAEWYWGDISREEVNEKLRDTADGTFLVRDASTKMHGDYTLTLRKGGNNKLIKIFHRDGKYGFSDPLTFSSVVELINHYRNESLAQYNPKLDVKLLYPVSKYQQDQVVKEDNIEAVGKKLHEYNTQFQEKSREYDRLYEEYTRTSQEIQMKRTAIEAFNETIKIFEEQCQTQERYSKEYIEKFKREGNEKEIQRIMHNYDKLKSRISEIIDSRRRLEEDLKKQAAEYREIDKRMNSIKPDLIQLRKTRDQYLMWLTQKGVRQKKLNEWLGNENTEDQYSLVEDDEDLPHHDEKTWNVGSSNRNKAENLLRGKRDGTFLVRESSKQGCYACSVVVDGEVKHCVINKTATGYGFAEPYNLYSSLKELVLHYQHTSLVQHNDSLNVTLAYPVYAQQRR
Experimental: as §3

[5] = molecular target: Vps34 (Homo sapiens, UniProt Q8NEB9); experiment: In vitro lipid kinase profiling
[6] = molecular target: c-MER (Homo sapiens, UniProt Q12866); experiment: HotSpot protein kinase panel; conditions: read-out: c-MER activity remaining
Sequence of c-MER (Q12866 21-999): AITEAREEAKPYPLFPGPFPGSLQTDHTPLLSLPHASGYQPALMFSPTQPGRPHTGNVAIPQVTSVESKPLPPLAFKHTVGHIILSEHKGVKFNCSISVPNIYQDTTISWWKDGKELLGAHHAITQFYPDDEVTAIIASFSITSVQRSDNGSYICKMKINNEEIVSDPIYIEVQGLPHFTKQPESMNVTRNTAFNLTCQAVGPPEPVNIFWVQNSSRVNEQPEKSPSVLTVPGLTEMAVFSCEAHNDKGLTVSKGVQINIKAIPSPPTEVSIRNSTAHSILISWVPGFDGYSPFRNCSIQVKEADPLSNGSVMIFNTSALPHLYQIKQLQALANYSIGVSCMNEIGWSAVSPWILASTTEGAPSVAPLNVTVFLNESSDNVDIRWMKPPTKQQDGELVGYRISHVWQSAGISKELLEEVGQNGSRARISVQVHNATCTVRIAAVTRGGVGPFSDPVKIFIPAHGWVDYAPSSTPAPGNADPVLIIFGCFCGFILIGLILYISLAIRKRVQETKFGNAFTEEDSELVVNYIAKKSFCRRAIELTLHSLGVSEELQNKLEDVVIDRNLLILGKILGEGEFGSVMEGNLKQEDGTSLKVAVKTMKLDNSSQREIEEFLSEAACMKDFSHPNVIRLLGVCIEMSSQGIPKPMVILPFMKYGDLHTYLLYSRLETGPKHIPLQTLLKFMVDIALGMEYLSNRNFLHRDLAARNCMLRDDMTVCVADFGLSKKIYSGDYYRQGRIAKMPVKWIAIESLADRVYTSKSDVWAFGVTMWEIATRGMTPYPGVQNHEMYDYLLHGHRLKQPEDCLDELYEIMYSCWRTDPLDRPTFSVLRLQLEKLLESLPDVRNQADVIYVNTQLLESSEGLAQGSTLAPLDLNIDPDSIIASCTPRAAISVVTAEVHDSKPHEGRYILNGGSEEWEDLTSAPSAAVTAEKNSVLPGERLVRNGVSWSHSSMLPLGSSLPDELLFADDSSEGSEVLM

[7] = molecular target: TNIK (Homo sapiens, UniProt Q9UKE5); experiment: HotSpot protein kinase panel; conditions: read-out: TNIK activity remaining
Experimental: as §4

[8] = test system: panel of 14 lipid kinases; experiment: Lipid kinase panel (ADP-Glo), panel as a whole; conditions: compound 0.5 μM, ATP 10 μM
Experimental: as §3

[9] = molecular target: EIF2AK3 (Homo sapiens, UniProt Q9NZJ5); experiment: HotSpot protein kinase panel; conditions: read-out: EIF2AK3 activity remaining
[10] = test system: MCF7 cells; experiment: Immunoblot analysis of AMPK activation in MCF7 cells; type: cell-based
Experimental: (§1) After wash with cold DPBS buffer, cells were lysed in RIPA buffer that contained 50 mM Tris-HCl pH 8.0, 150 mM NaCl, 1 mM EDTA, 1 mM EGTA, 1% NP-40, 0.5% sodium deoxycholate, 0.1% SDS, and protease and phosphatase inhibitor cocktails (Roche). Total protein concentrations were measured using a BCA assay (Thermo scientific). Cell lysate (about 80 μg protein) was resolved by SDS-PAGE and blotted onto PVDF membranes. The membranes were probed overnight at 4° C. with appropriate primary antibodies (Cell Signaling Technology) and incubated with secondary fluorescent antibodies (LI-COR Biosciences) for 1 hr at room temperature before imaging by an Odyssey CLx system.

[11] = test system: AMPK; experiment: Western blot of ACC phosphorylation by AMPK in myotubes (FIG. 3F); type: cell-based
Experimental: as §1

[12] = test system: MCF10A p53(−/−) cells; experiment: Cell death upon serum withdrawal, trypan blue staining; type: cell-based
Experimental: However, the difference is lost when EGF is added to the culture media. […] FIG. 17C: Cell death upon serum withdrawal is measured by trypan blue staining. p53(−/−) Cells are more susceptible to metabolic perturbations caused by glucose starvation.

[13] = test system: myotubes; experiment: Glucose consumption and lactate production in myotube culture media; type: cell-based
Experimental: (§2) To measure glucose consumption and lactate production, a total of 1×10^5 cells were seeded into each well of a 12-well plate and cultured in the presence of compound for 48 hrs. The culture media were collected and deproteinized by centrifugation using an Amicon Ultra centrifugal filter (3 kDa cut-off), while cells were lysed and used for protein concentration determination by BCA assay. The media were assayed immediately for glucose and lactate levels using colorimetric assay kits from BioVision following the manufacturer's protocols. The values were normalized against protein concentration. All measurements were made in triplicate.

[14] = test system: C2Cl2 myotubes; experiment: Adenine nucleotides measurement in myotubes (luminescent ATP kit, HPLC, LC-MS/MS); type: cell-based, mouse
Experimental: C2Cl2 cells were plated and differentiated on the same type of plates. After treatment with compound overnight, total cellular ATP levels were measured by a luminescent ATP detection assay kit (Abcam) following manufacturer's protocol and normalized against the total protein concentration.
To measure nucleotide concentration using HPLC or LC-MS/MS, cells were rinsed three times with DPBS buffer at room temperature and lysed in ice-cold 0.4M perchloric acid (500 μl acid per 10^6 cells). The culture dishes were sealed and transferred to a −80° C. freezer. Cell lysates were then thawed on ice, scraped off, and centrifuged at 14,000 rpm at 4° C. for 10 min. The pellet was solubilized in 0.2M NaOH and set aside for measurement of protein concentration. The supernatant was transferred to clean tubes and neutralized with 3M KHCO3. The neutralized sample was kept on ice for 10 min and then transferred to a −80° C. freezer. After 2 hrs, thawed sample was centrifuged again to remove the precipitated perchlorate, filtered, adjusted according to protein concentration, aliquoted and stored at −80° C. The sample was thawed on ice just before the HPLC or LC-MS/MS experiment. […] The nucleotides were separated using 20 mM ammonium acetate in water (solvent A) and 5% acetonitrile in water buffered with 20 mM ammonium acetate (solvent B), which were both adjusted with ammonium hydroxide to pH 9.0. The flow rate was 0.7 mL/min, and the column temperature was maintained at 35° C. The gradient elution program was: 0-2 min, 0-5% B; 2-12 min, 5-10% B; 12-22 min, 10-20% B; 22-25 min, 20-100% B; 25-30 min, 100% B, and then back to 100% A for 1 min, which was maintained for another 9 min to recondition the column. Mass spectrometric ESI ionization was performed in the negative ion mode and the source parameters were set as follows: gas temperature, 200° C.; gas flow, 12 L/min; nebulizer pressure, 35 psi; sheath gas temperature, 200° C.; sheath gas flow, 12 L/min; capillary voltage, −4,000V; fragmentor voltage, 380V.

[15] = test system: BT474 cells; experiment: Glucose consumption and lactate secretion in BT474 cells; type: cell-based
Experimental: as §2

[16] = molecular target: PI4P5Kα (Homo sapiens, UniProt Q99755); experiment: Lipid kinase assay / panel (ADP-Glo)
Sequence of PI4P5Kα (Q99755 whole entry): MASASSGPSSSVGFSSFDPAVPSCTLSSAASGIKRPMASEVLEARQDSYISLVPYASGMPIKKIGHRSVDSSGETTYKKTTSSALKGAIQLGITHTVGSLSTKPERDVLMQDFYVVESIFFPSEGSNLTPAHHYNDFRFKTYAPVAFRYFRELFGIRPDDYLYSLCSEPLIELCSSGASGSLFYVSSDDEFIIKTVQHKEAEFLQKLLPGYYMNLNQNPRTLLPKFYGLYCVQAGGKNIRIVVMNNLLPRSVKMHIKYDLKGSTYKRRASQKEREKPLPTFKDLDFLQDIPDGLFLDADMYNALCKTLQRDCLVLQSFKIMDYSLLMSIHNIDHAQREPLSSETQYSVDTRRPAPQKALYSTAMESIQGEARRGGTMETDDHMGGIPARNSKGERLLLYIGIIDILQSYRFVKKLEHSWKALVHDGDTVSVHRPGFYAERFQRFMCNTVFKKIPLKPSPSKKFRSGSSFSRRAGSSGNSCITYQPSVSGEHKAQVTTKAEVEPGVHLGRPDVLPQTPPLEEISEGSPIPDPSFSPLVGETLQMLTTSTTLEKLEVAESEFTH
Excerpt: The assay kits for Plk1 and RSK2 were obtained from Promega (Madison, Wis.), which use ADP-Glo™ for activity detection.

[17] = test system: BT-474 cells; experiment: Intracellular ROS (DCFDA); type: cell-based; conditions: 20 μM
Experimental: 2′,7′-dichlorofluorescin diacetate (DCFDA) was used to assess intracellular ROS levels. DCFDA is deacetylated in the cell and oxidized by ROS to a fluorescent product 2′,7′-dichlorofluorescein (DCF). BT-474 cells were plated on a black clear-bottom 96-well plate (Corning 3603; 2×10^4 cells per well). ROS was measured by a DCFDA cellular ROS detection assay kit (Abcam) following the manufacturer's protocol. The cells were treated with compound for 6 hrs before fluorescence was measured using a SpectraMax M5 plate reader (excitation 485 nm, emission 535 nm).

[18] = molecular target: NEK11 (Homo sapiens, UniProt Q8NG66); experiment: HotSpot protein kinase panel; conditions: read-out: NEK11 activity remaining
Sequence of NEK11 (Q8NG66 whole entry): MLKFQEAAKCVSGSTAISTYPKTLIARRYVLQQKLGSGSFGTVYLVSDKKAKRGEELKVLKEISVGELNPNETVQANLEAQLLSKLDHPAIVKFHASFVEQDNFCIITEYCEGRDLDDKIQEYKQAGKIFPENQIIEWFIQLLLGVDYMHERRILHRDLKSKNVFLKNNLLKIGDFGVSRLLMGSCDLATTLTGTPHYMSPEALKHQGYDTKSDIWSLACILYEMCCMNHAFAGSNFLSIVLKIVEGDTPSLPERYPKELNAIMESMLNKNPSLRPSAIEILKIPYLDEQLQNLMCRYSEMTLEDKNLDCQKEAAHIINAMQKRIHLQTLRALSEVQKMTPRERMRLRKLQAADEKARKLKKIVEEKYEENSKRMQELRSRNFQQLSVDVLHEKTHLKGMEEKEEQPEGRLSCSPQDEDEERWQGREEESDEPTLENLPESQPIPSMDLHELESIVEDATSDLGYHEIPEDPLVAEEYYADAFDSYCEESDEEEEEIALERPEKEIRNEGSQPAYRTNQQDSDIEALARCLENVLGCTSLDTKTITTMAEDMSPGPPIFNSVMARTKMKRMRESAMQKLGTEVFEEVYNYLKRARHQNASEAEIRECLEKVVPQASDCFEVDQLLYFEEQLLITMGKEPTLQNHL

[19] = test system: BT474 cells; experiment: Immunoblot analysis in BT474 cells; type: cell-based
Experimental: as §1

[20] = test system: L6 myotubes; experiment: Immunoblot analysis of ACC phosphorylation in L6 myotubes; type: cell-based, rat; conditions: dose-dependent
Experimental: BT-474 and MCF7 breast cancer cells, C2Cl2 mouse myoblast cells, and HEK 293T cells were maintained in high-glucose DMEM medium containing 10% FBS. L6 rat myoblast cells were maintained in α-MEM medium containing 10% FBS. For differentiation into myotubes, C2Cl2 cells were kept in DMEM medium containing 2% horse serum for 5 days, and L6 cells were kept in α-MEM medium containing 2% FBS for 7 days. Amino-acid-free DMEM medium was prepared using powder from USBio, and MEM amino acids solution was from Gibco. Media were all supplemented with 100 U/ml penicillin/streptomycin. Cell lines were purchased from ATCC.
as §1

CN1C(=O)[C@@H](CC2CCCC2)N(C2CCCC2)c2nc(Nc3cc(Cl)c(O)c(Cl)c3)ncc21 [7a, (R)-8-cyclopentyl-7-(cyclopentylmethyl)-2-((3,5-dichloro-4-hydroxyphenyl)amino)-5-methyl-7,8-dihydropteridin-6(5H)-one]
Ki [1]: ~200 nM | residual growth of p53(−/−) cells under EGFR inhibition ([2]; 10 μM 7a): eliminated | sensitivity of growth of p53(−/−) vs p53(+/+) cells ([2]; without EGF supplement): more sensitive | remaining activity at 0.5 µM [3]: 97% | Ki [4]: ~120 nM | inhibition of Vps34 [5]: not inhibited | remaining activity at 0.5 µM [6]: 67% | remaining activity at 0.5 µM [7]: 73% | inhibition of other lipid kinases of the panel [8]: did not inhibit most PI3Ks, PI4Ks or sphingosine kinases | remaining activity at 0.5 µM [9]: 50% | AMPK activation ([10]; MCF7, absence of serum): caused AMPK activation | AMPK activation ([10]; MCF7, with serum): no longer caused AMPK activation | ACC phosphorylation / AMPK activation [11]: activated | cell death [12]: selectively kills p53(−/−) cells | lactate accumulated in the media ([13]; 48 hours after treatment): 7.7 mM | reduction of glucose concentration in the media ([13]; 48 hours after treatment): 10.3 mM | increase in glucose consumption ([13]; after 2 days of cell culture): 32% | increase in lactate secretion ([13]; after 2 days of cell culture): 45% | ADP concentration [14]: unchanged | reduction of intracellular ATP level ([14]; bioluminescence assay or HPLC, compound overnight): 15% | increase in AMP concentration ([14]; triple quadrupole LC-MS/MS): 30% | lactate fermentation ([15]; absence of serum): slightly increased | metabolic switch induced by serum (glucose consumption, lactate secretion) ([15]; with serum): prevented | Ki [16]: ~5000 nM | remaining activity at 0.5 µM ([16]; read-out: PI4P5Kα activity remaining): 95% | ROS [17]: increased | remaining activity at 0.5 µM [18]: 66% | p38 phosphorylation ([19]; 20 μM): increased | levels of cell-cycle inhibitors p21 and p27 ([19]; BT474): increased levels | mTORC1 activity (S6K phosphorylation) ([19]; BT474): less S6K phosphorylation | AMPK activation (phosphorylation of ACC and raptor) ([19]; BT474, 0, 10 and 20 μM): activated | AMPK activation ([19]; BT474, absence of serum): caused AMPK activation | AMPK activation ([19]; BT474, with serum, 32° C.): no longer caused AMPK activation | AMPK activation ([19]; BT474, with serum, 37° C.): activated | phosphorylation of acetyl-CoA carboxylase (ACC) [20]: significantly increased
